{"source": "patent US20060014949A1", "about": "(SuperGen Inc., priority 2004, published 2006)", "type_in_all_cases": "physicochemical", "key": {"[1]": {"assay": "Moisture sorption/desorption analysis (VTI SGA-100)", "details": "for Weight % chg: Table 3", "description": "Moisture sorption/desorption data were collected on a VTI SGA-100 Vapor Sorption Analyzer. Sorption and desorption data were collected over a range of 5 to 95% relative humidity (RH) at 10% RH increments under a nitrogen purge. Sodium chloride (NaCl) and polyvinylpyrrolidone (PVP) were used as the calibration standards. Equilibrium criteria used for analysis were less than 0.0100% weight change in 5 minutes, with a maximum equilibration time of 180 minutes if the weight criterion was not met. Data collected were not corrected for the initial moisture content of the samples."}, "[2]": {"assay": "Relative humidity stress experiments, XRPD after storage over saturated salt solutions", "details": "Sodium Chloride, 75.5 % RH @ 20° C., 27 days", "description": "In relative humidity (RH) stress analysis, open vials containing solid samples were placed inside chambers containing saturated salt solutions along with a small amount of the undissolved salt. The chambers were sealed and allowed to stand at ambient temperature for several days. Samples were analyzed by X-ray powder diffraction (XRPD) immediately after removing the sample from the RH chamber. The RH values these salt solutions were obtained from an ASTM standard."}, "[3]": {"assay": "Thermogravimetric analysis (TGA)", "details": "25 to 150° C.; listed as A", "description": "Thermogravimetric analysis (TGA) was carried out on TA Instruments TGA 2050 or 2950. The calibration standards were nickel and Alumel™. Samples were placed on a clean, aluminum sample pan, accurately weighed, and inserted into the TGA furnace. The samples were heated in nitrogen at a rate of 10° C./min, from 35° C. to a final temperature of 250° C."}, "[4]": {"assay": "Solid-state stress (compression, heating, grinding, storage) with XRPD form check", "details": "no solvent; Hydraulic Press 10,000 lbs 1 hour", "description": "X-ray powder diffraction analyses were carried out on a Shimadzu XRD-6000 X-ray powder diffractometer using Cu Kα radiation having a wavelength of 1.5406 Å. The instrument is equipped with a fine-focus X-ray tube. The tube power was set by setting potential difference at 40 kV, and current 40 mA. The divergence and scattering slits were set at 1° and the receiving slit was set at 0.15 mm. Diffracted radiation was detected by a NaI scintillation detector. A theta-two theta continuous scan at 3°/min (0.4 sec/0.02° step) from 2.5 to 40 °2θ was performed. A silicon standard was analyzed each day to check the instrument alignment. Each sample was analyzed in a quartz sample holder. A variable temperature (VT-XRPD) experiment was performed on one form. The sample was prepared for analysis by pressing it into a variable temperature holder."}}}
{"smiles": "Nc1ncn([C@H]2C[C@H](O)[C@@H](CO)O2)c(=O)n1", "note": "[Form A]", "values": [{"measurement": "total weight loss in the region from 5 to 45% RH", "setting": "[1]; 5 to 45% RH", "value": "about 0.1%"}, {"measurement": "total weight gain from 5 to 95% RH", "setting": "[1]; 5 to 95% RH, listed as form A", "value": 7.3, "unit": "%"}, {"measurement": "Weight % chg", "setting": "[1]; desorption, RH 4.93 %, 24.89 deg C, 533.4 min", "value": 7.1472, "unit": "%"}, {"measurement": "Weight % chg", "setting": "[1]; desorption, RH 15.15 %, 24.89 deg C, 524.9 min", "value": 7.1528, "unit": "%"}, {"measurement": "Weight % chg", "setting": "[1]; desorption, RH 25.13 %, 24.88 deg C, 515.4 min", "value": 7.1586, "unit": "%"}, {"measurement": "Weight % chg", "setting": "[1]; desorption, RH 35.12 %, 24.88 deg C, 504.8 min", "value": 7.1671, "unit": "%"}, {"measurement": "Weight % chg", "setting": "[1]; desorption, RH 45.07 %, 24.87 deg C, 493.8 min", "value": 7.1753, "unit": "%"}, {"measurement": "Weight % chg", "setting": "[1]; desorption, RH 55.14 %, 24.88 deg C, 480.8 min", "value": 7.1837, "unit": "%"}, {"measurement": "Weight % chg", "setting": "[1]; desorption, RH 65.19 %, 24.88 deg C, 467.8 min", "value": 7.1925, "unit": "%"}, {"measurement": "Weight % chg", "setting": "[1]; desorption, RH 75.49 %, 24.88 deg C, 454.8 min", "value": 7.2022, "unit": "%"}, {"measurement": "Weight % chg", "setting": "[1]; desorption, RH 85.43 %, 24.89 deg C, 443.8 min", "value": 7.2106, "unit": "%"}, {"measurement": "Weight % chg", "setting": "[1]; sorption, RH 5.14 %, 24.92 deg C, 27.9 min", "value": "−0.0698", "unit": "%"}, {"measurement": "Weight % chg", "setting": "[1]; sorption, RH 14.81 %, 24.92 deg C, 41.6 min", "value": "−0.0784", "unit": "%"}, {"measurement": "Weight % chg", "setting": "[1]; sorption, RH 24.88 %, 24.92 deg C, 51.2 min", "value": "−0.0804", "unit": "%"}, {"measurement": "Weight % chg", "setting": "[1]; sorption, RH 34.89 %, 24.92 deg C, 62.2 min", "value": "−0.0733", "unit": "%"}, {"measurement": "Weight % chg", "setting": "[1]; sorption, RH 44.86 %, 24.91 deg C, 82.2 min", "value": "−0.1004", "unit": "%"}, {"measurement": "Weight % chg", "setting": "[1]; sorption, RH 54.83 %, 24.91 deg C, 93.2 min", "value": "−0.0931", "unit": "%"}, {"measurement": "Weight % chg", "setting": "[1]; sorption, RH 64.82 %, 24.91 deg C, 107.7 min", "value": "−0.0775", "unit": "%"}, {"measurement": "Weight % chg", "setting": "[1]; sorption, RH 74.73 %, 24.91 deg C, 118.3 min", "value": "−0.0646", "unit": "%"}, {"measurement": "Weight % chg", "setting": "[1]; sorption, RH 84.63 %, 24.91 deg C, 304.2 min", "value": 3.8389, "unit": "%"}, {"measurement": "Weight % chg", "setting": "[1]; sorption, RH 94.67 %, 24.90 deg C, 433.1 min", "value": 7.2104, "unit": "%"}, {"measurement": "Weight % chg", "setting": "[1]; start, RH 1.46 %, 24.92 deg C, 0.0 min", "value": 0.0000, "unit": "%"}, {"measurement": "solid form after moisture sorption/desorption analysis", "setting": "[1]; after sorption/desorption cycle, listed as form A", "value": "retained during the desorption cycle as decitabine polymorph form B"}, {"measurement": "weight (water) lost upon equilibration to 5% RH", "setting": "[1]; equilibration to 5% RH, listed as form A", "value": 0.06, "unit": "%"}, {"measurement": "RH above which moisture sorption begins", "setting": "[1]; sorption cycle", "value": "above 75 % RH"}, {"measurement": "XRPD result", "setting": "[2]", "value": "converts into form B"}, {"measurement": "TGA Results: percent weight change from 25 to 150° C.", "setting": "[3]", "value": "<0.1", "unit": "%"}, {"measurement": "XRPD Pattern", "setting": "[4]", "value": "did not induce a form change"}]}
